Measured values reported in patent publication US11753408B2, “Compounds and method for blocking transmission of malarial parasite” (The United States of America, as represented by the …, priority 2016, dated 2023).
pEC50: −log10 of the molar value. Like-named read-outs stand apart in the source and are kept apart here.

How the values were obtained:
[1] = Solubility at pH 7.4; format: physicochemical
[2] = target: mTOR (Homo sapiens, UniProt P42345); assay: mTOR activity (no method described); format: biochemical
[3] = test system: Asexual parasites of P. falciparum strain 3D7; assay: In vitro drug activity on asexual parasites (SYBR Green assay); format: cell-based, Plasmodium falciparum
Protocol: Cell culture. Asexual parasites of P. falciparum strain 3D7 were cultured as described previously [Trager W, et al., Journal of Parasitology 2005, 91: 484-486], Stage III-V gametocytes were selected and enriched with 3-day treatment with 50 mM N-acetylglucosamine (NAG) and the following Percoll density gradient centrifugation after gametocyte production [Tanaka T Q, et al., Molecular and Biochemical Parasitology, 2011, 111: 160-163], Gametocytes of HB3 and Dd2 strains were produced and then set up for assay in a similar process. HepG2 cells (ATCC, cat. no. 77400) were cultured in 175-cm^2 tissue culture flasks with 30 ml growth medium at 37° C. in a 5% CO2 humidified atmosphere. Growth medium was made with Dulbecco's Modified Eagle Medium with 10% fetal bovine serum (FBS). Growth medium was replaced every other day and cells were passed at 75% confluence.
Asexual parasites of P. falciparum strain 3D7 were cultured as described previously (Trager, W. et al., J. Parasitol. 2005, 91(3): 484-486). Drug activity on asexual stage parasites was tested using a SYBR Green assay as described previously (Eastman, R. T. et al., Antimicrob. Agents Chemother. 2013, 57(1): 425-435; Smilkstein, M. et al., Antimicrob. Agents Chemother. 2004, 48(5): 1803-1806). Briefly, parasites were diluted to 0.5% parasitemia in complete culture medium with 2% hematocrit and drugs diluted in DMSO (≤0.5%) and were loaded into a 96-well plate (200 μl/well). No drug and RBC alone wells were included as positive and background controls, respectively, and each testing condition was examined in duplicated. After 72 h incubation under the standard culture condition and a freeze-thaw lysis step at −80° C. and room temperature, 100 μl/well of lysis buffer containing SYBR Green I was added to the parasite culture and incubated for 30 min at room temperature. The fluorescence of each well was measured at 520 nm following excitation at 490 nm using a FLUOstar Optima™ microplate reader (BMG Labtech).

[4] = Microsomal stability (rat); format: in vitro ADME; conditions: rat microsomes
[5] = PAMPA permeability; format: in vitro ADME
[6] = P. falciparum 3D7 asexual parasites, 72 h, SYBR Green

| SMILES | Sol @ pH 7.4 [1] | mTOR [2] | pEC50 [3] | Microsomal Stability (rat) T1/2 [4] | PAMPA Permeability [5] | Sol @ pH 7.4 (ug/mL) [1] | pEC50 [3, 6] | PAMPA Permeability (×10^6 cm/s) [5] |
| --- | --- | --- | --- | --- | --- | --- | --- | --- |
| O=C(NCC(F)(F)F)c1ccc(-n2c(=O)ccc3cnc4ccc(-c5ccc(Cl)cc5)cc4c32)cc1 [Compound 89] | <1 ug/mL | 2.689 µM | 7.28 | >30 min | < 1 ×10⁻⁶ cm/s |  |  |  |
| CN(C)CCNC(=O)c1ccc(-n2c(=O)ccc3cnc4ccc(-c5ccc(Cl)cc5)cc4c32)cc1 [Compound 90] | 13.6 ug/mL | 19.84 µM | 7.13 | >30 min | 802 ×10⁻⁶ cm/s |  |  |  |
| O=C(NC1CC1)c1ccc(-n2c(=O)ccc3cnc4ccc(-c5ccc(F)cc5)cc4c32)cc1 [Compound 91] | <1 ug/mL | 4.415 µM | 7.48 | >30 min | 54.2 ×10⁻⁶ cm/s |  |  |  |
| O=C(NC1CC1)c1ccc(-n2c(=O)ccc3cnc4ccc(-c5ccc(Cl)cc5)nc4c32)cc1 [Compound 93] | <1 ug/mL | 0.4507 µM | 7.55 | >30 min | 76.3 ×10⁻⁶ cm/s |  |  |  |
| O=C(NC1CCNC1)c1ccc(-n2c(=O)ccc3cnc4ccc(-c5ccc(Cl)cc5)cc4c32)cc1 (stereo not drawn) [Compound 96] | 11.4 ug/mL | 1.291 µM | 7.43 | >30 min | 7.8 ×10⁻⁶ cm/s |  |  |  |
| NC1(c2ccc(-c3ccc4ncc5ccc(=O)n(-c6ccc(C(=O)NC7CC7)cc6)c5c4c3)cc2)CC1 [Compound 97] | 7.1 ug/mL | 1.4 µM | 7.00 | >30 min | 35.8 ×10⁻⁶ cm/s |  |  |  |
| O=C(NC1CC1)c1ccc(-n2c(=O)ccc3cnc4ccc(-c5ccc(F)c(O)c5)cc4c32)cc1 [Compound 203] | 1.2 ug/mL | 0.5128 µM | 7.76 | 29.3 min | 750 ×10⁻⁶ cm/s |  |  |  |
| COc1cc(C(=O)NC2CC2)ccc1-n1c(=O)ccc2cnc3ccc(-c4ccc(C5(N)CC5)cc4)cc3c21 [Compound 205] | 2.2 ug/mL | 1.061 µM | 6.75 |  | 456 ×10⁻⁶ cm/s |  |  |  |
| CN(C)C(=O)c1ccc(-n2c(=O)ccc3c[n+]([O-])c4ccc(-c5ccc(Cl)cc5)cc4c32)cc1 [Compound 208] | 35.5 ug/mL | 21.75 µM | 7.18 | 13.2 min | 248 ×10⁻⁶ cm/s |  |  |  |
| CCCCNC(=O)c1ccc(-n2c(=O)ccc3cnc4ccc(-c5ccc(Cl)cc5)cc4c32)cc1 [Compound 209] | <1 ug/mL | 2.492 µM | 6.27 | 4 min | < 1 ×10⁻⁶ cm/s |  |  |  |
| CC(C)NC(=O)c1ccc(-n2c(=O)ccc3cnc4ccc(-c5ccc(Cl)cc5)cc4c32)cc1 [Compound 213] | <1 ug/mL | 1.299 µM | 6.89 | 18.9 min | < 1 ×10⁻⁶ cm/s |  |  |  |
| O=C(NCCCO)c1ccc(-n2c(=O)ccc3cnc4ccc(-c5ccc(Cl)cc5)cc4c32)cc1 [Compound 214] | <1 ug/mL | 0.3394 µM | 7.73 | 21.2 min | 333 ×10⁻⁶ cm/s |  |  |  |
| Cc1cc(C(=O)NC2CC2)ccc1-n1c(=O)ccc2cnc3ccc(-c4ccc(F)cc4)cc3c21 [Compound 223] | 3.4 ug/mL | 7.119 µM | 7.24 |  | 1180 ×10⁻⁶ cm/s |  |  |  |
| Cc1cc(C(=O)NC2CC2)ccc1-n1c(=O)ccc2cnc3ccc(-c4ccc(C5(N)CC5)cc4)cc3c21 [Compound 224] | >74 ug/mL | 100 µM | 4.34 |  | < 1 ×10⁻⁶ cm/s |  |  |  |
| CC(C)(C)OC(=O)CN1Cc2cc(-n3c(=O)ccc4cnc5ccc(-c6ccc(Cl)cc6)cc5c43)ccc2C1=O [Compound 364] |  |  |  | >30 min |  | 2.7 ug/mL | 5.34 | 75.9 ×10^6 cm/s |
| O=C1NC(=O)c2cc(-n3c(=O)ccc4cnc5ccc(-c6ccc(Cl)cc6)cc5c43)ccc21 [Compound 379] |  |  |  | 23 min |  | <1 ug/mL | 5.53 | 31 ×10^6 cm/s |
| O=C1NCc2cc(-n3c(=O)ccc4cnc5ccc(-c6ccc(OC7CCNCC7)cc6)cc5c43)ccc21 [Compound 380] |  |  |  | >30 min |  | 2.6 ug/mL | 6.51 | <10.7 ×10^6 cm/s |

Results, then the compound that gave them:

| Sol @ pH 7.4 [1] | mTOR [2] | pEC50 [3] | Microsomal Stability (rat) T1/2 [4] | PAMPA Permeability [5] | Sol @ pH 7.4 (ug/mL) [1] | pEC50 [3, 6] | PAMPA Permeability (×10^6 cm/s) [5] | SMILES |
| --- | --- | --- | --- | --- | --- | --- | --- | --- |
| 13.6 ug/mL | 4.188 µM | 7.60 | >30 min | 1.9 ×10⁻⁶ cm/s |  |  |  | O=C(NC1CN(CCO)C1)c1ccc(-n2c(=O)ccc3cnc4ccc(-c5ccc(Cl)cc5)cc4c32)cc1 [Compound 94] |
| 54.7 ug/mL | 1.731 µM | 7.80 | >30 min | 674 ×10⁻⁶ cm/s |  |  |  | CN(C)CCN1CCN(C(=O)c2ccc(-n3c(=O)ccc4cnc5ccc(-c6ccc(Cl)cc6)cc5c43)cc2)CC1 [Compound 95] |
| >80.0 ug/mL | inactive | 4.11 | >30.0 min | 3 ×10⁻⁶ cm/s |  |  |  | O=C(O)c1cc(Cl)ccc1-c1ccc2ncc3ccc(=O)n(-c4ccc(C(=O)N5CCOCC5)cc4)c3c2c1 [Compound 135] |
| <1 ug/mL | 100 µM |  | 18 min | 85.9 ×10⁻⁶ cm/s |  |  |  | CC(C)(C)c1ccc(-c2ccc3ncc4ccc(=O)n(-c5ccc(C(=O)N6CCOCC6)cc5)c4c3c2)cc1 [Compound 196] |
| >75 ug/mL | 13.84 µM | 6.58 | >30 min | 6.1 ×10⁻⁶ cm/s |  |  |  | CNCc1ccc(-c2ccc3ncc4ccc(=O)n(-c5ccc(C(=O)N6CCOCC6)cc5)c4c3c2)cc1 [Compound 198] |
| 1.4 ug/mL | 16.51 µM | 6.96 | 5.6 min | 1440 ×10⁻⁶ cm/s |  |  |  | COc1cc(C(=O)N2CCOCC2)ccc1-n1c(=O)ccc2cnc3ccc(-c4ccc(Cl)cc4)cc3c21 [Compound 199] |
| 7.2 ug/mL | 15.37 µM | 7.22 |  | 1070 ×10⁻⁶ cm/s |  |  |  | CNCc1cc(-n2c(=O)ccc3cnc4ccc(-c5ccc(Cl)cc5)cc4c32)ccc1C(=O)N1CCOCC1 [Compound 200] |
| <1 ug/mL | 17.28 µM | 5.79 | 12.6 min | 13.8 ×10⁻⁶ cm/s |  |  |  | CC(C)c1ccc(-c2ccc3ncc4ccc(=O)n(-c5ccc(C(=O)N6CCOCC6)cc5)c4c3c2)cc1 [Compound 201] |
| 57.8 ug/mL | 3.267 µM | 6.92 | >30 min | 415 ×10⁻⁶ cm/s |  |  |  | CN(C)CCOc1ccc(-c2ccc3ncc4ccc(=O)n(-c5ccc(C(=O)N6CCOCC6)cc5)c4c3c2)cc1 [Compound 202] |
| <1 ug/mL | 0.2571 µM | 7.85 | >30 min | < 1 ×10⁻⁶ cm/s |  |  |  | O=C(NC1CC1)c1ccc(-n2c(=O)ccc3cnc4ccc(-c5ccc(Cl)c(O)c5)cc4c32)cc1 [Compound 204] |
| 44.1 ug/mL | 19.64 µM | 7.31 | 7.1 min | 428 ×10⁻⁶ cm/s |  |  |  | O=C(NCCCN1CCCC1)c1ccc(-n2c(=O)ccc3cnc4ccc(-c5ccc(Cl)cc5)cc4c32)cc1 [Compound 206] |
| 58.1 ug/mL | 0.1688 µM | 6.84 | >30 min | < 1 ×10⁻⁶ cm/s |  |  |  | CC(N)c1ccc(-c2ccc3ncc4ccc(=O)n(-c5ccc(C(=O)N6CCOCC6)cc5)c4c3c2)cc1 (stereo not drawn) [Compound 207] |
| >83 ug/mL | 43.09 µM | 5.41 | >30 min | 227 ×10⁻⁶ cm/s |  |  |  | O=C(c1ccc(-n2c(=O)ccc3cnc4ccc(-c5cccc(CCN6CCCC6)c5)cc4c32)cc1)N1CCOCC1 [Compound 211] |
| >79 ug/mL | 15.8 µM | 5.41 | >30 min | 189 ×10⁻⁶ cm/s |  |  |  | CN(C)CCc1cccc(-c2ccc3ncc4ccc(=O)n(-c5ccc(C(=O)N6CCOCC6)cc5)c4c3c2)c1 [Compound 212] |
